Data as given in patent EP0157762B1, “NEW SUBSTITUTED PIPERIDINOGUANIDINES, PREPARATION PROCESS AND PHARMACEUTICAL COMPOSITIONS CONTAINING THEM” (BOUCHARA S.A., priority 1983, dated 1985).

Experiment: Solubility (qualitative)
Assay type: physicochemical

In the case of `CNC(=NC(N)=O)NCC1CCN(CCCC(=O)c2ccc(F)cc2)CC1` [Exemple I], the “solubilité dans les solvants organiques” value (organic solvents) is reported as “peu soluble dans les solvants organiques” and the “solubilité dans l'eau” value (water) is reported as “soluble dans l'eau”.
